Laboratory results taken from patent US10780174B2, “Lipid-linked prodrugs” (The University of British Columbia, priority 2015, dated 2020).

What was measured:
[1] = tested on: immunostimulatory effects of LNP-CpG (plasma cytokines); assay: In vivo immune suppression by LD-DEX prodrugs, LNP-CpG model; set-up: species or system C57Bl/6 mice; conditions: mice, i.v., 10 mg/kg of CpG, 2 h post injection
Experimental: 6-8 Weeks old female C57Bl/6 mice (Charles River Laboratories™, Wilmington, Mass.) were injected intravenously with lipid nanoparticles containing CpG DNA oligonucleotides (10 mg/kg), mRNA (3 mg/kg) or plasmid DNA (pDNA) (1 mg/kg). Animals were euthanized 2 hours post-injection and blood was collected via intracardiac or saphenous sampling. Plasma was separated from whole blood by centrifugation and analyzed for proinflammatory cytokines using the Mesoscale Proinflammatory Multiplex™ kit (Rockville, Md.) according to manufacturer's instruction. All procedures were approved by the Animal Care Committee at the University of British Columbia and were performed in accordance with guidelines established by the Canadian Council on Animal Care.

[2] = Particle size and polydispersity of LNP containing prodrug (dynamic light scattering); assay type: physicochemical; conditions: PDI in brackets; for Particle size (PDI) PC-Chol LNP: LD-DEX prodrug in PC-Chol LNP; for Particle size (PDI) [ionizable LNP]: LD-DEX prodrug in ionizable LNP
Experimental: (§1) Preparation of LNP Systems: PC-Chol LNP systems were prepared by rapidly mixing POPC, cholesterol, lipid-linked prodrug and PEG-DMPE (in molar ratio of 49/39/10/2) dissolved in ethanol with phosphate-buffered saline using a T-junction mixer. Formulations were dialyzed against phosphate-buffered saline to remove residual ethanol and to raise the pH to 7.4. PC-TO and ionizable LNP systems were prepared in the same way except that the lipid compositions for these systems are: POPC, triolein, lipid-linked prodrug and PEG-DSPE (in molar ration of 19/70/10/1), and ionizable lipid, DSPC, cholesterol, lipid-linked prodrug and PEG-DMPE (in molar ration of 40/10/38.5/10/1.5), respectively.
Characterization of LNP: Particle size was determined by dynamic light scattering using a Malvern Zetasizer Nano ZS™ (Malvern, UK) following buffer exchange into phosphate-buffered saline. Number-weighted size and distribution data was used. Lipid concentrations were determined by measuring total cholesterol using the Cholesterol E enzymatic assay kit from Wako Chemicals USA™ (Richmond, Va.). The morphology of LNP formulations containing LD-DEX was analyzed by cryogenic-transmission electron microscopy (cryoTEM) as described previously [Leung et al. (2012)].

[3] = tested on: IL1β expression in RAW 264.7 mouse macrophage cells; assay: In vitro immune suppression, LPS-treated RAW 264.7 cells, IL1β qRT-PCR; assay type: cell-based; conditions: 2 ng/mL LPS, 4 h
Experimental: RAW 264.7 mouse macrophage cells were seeded at 250,000 cells per mL on 12-well plates and incubated at 37° C. overnight. Lipopolysaccharide (LPS) was dissolved in phosphate buffered saline at a concentration of 2 μg/ml. Cells were treated with lipid nanoparticles containing LD-DEX prodrugs and 2 ng/ml of LPS for 4 hours. This LPS concentration was chosen due to its ability to increase IL1β expression approximately 1000 times as compared to untreated cells. At the end of the incubation period, culture medium was aspirated and cellular RNA was extracted using the Purelink RNA™ extraction kit according to manufacturer's protocol (Life Technologies™, Burlington, ON). The concentration of extracted RNA was determined using a Nanodrop Lite™ (Thermo Fisher™). 1 μg of RNA was converted to cDNA using the High Capacity cDNA Reverse Transcription kit (Life Technologies™, Burlington, ON). In order to validate the sample preparation, a no template control and a negative reverse transcriptase control were included. The cDNA was then quantified using comparative real-time qPCR where the Ct (threshold cycle) values are converted to relative quantity using the 2-ΔΔCT method. The primer-probe sets were designed to bind to cDNA of Interleukin-1β(IL1β). Hypoxanthine-guanine phosphoribosyltransferase (HPRT) was chosen as the endogenous normalizer gene, which is known to maintain consistent levels with varying treatments.

[4] = In vitro degradation of lipid-linked prodrugs in LNP, mouse plasma; assay type: in vitro ADME; conditions: LNP; for prodrug cleavage/degradation after 1 h in plasma: 37° C., mouse plasma
Experimental: (§2) Quantitation of prodrugs by HPLC: LD-DEX/DTX were quantified by ultra high-pressure liquid chromatography (UHPLC) using a Waters Acquity™ UPLC system equipped with a photodiode array detector (PDA) and evaporative light scattering (ELS) detector; Empower™ data acquisition software version 3.0 was used (Waters™, USA). Separations were performed using a Waters Acquity™ BEH C18 column (1.7 μm, 2.1×100 mm) at a flow rate of 0.5 ml/min, with mobile phases A and B consisting of methanol/10 mM ammonium bicarbonate (80/20% v/v) and methanol/acetonitrile (80/20% v/v), respectively. The mobile phases were delivered at a programmed linear gradient (45%-80% B in 1 min then to 99% B at 2 min) at a column temperature of 55° C. The analyte was measured by PDA (at a wavelength of 239 nm) and ELS detector against calibration standard curves. For the analysis of LD-DEX/DTX breakdown to active compound, linear gradients of 20/80% to 100/0% (acetonitrile/water, v/v) over 7 min were used.
To determine the biodegradability of the dexamethasone or docetaxel prodrugs (LD-DEX/DTX), 1 mg/mL LNP was incubated in mouse plasma (Cedarlane™, Burlington, Ontario) or PBS supplemented with 10 U of purified esterase (Sigma-Aldrich™, St. […] Post incubation, four volumes of chloroform/methanol (2:1) was added and the mixture was vortex mixed. Samples were centrifuged at 13,000 g for 5 minutes and the upper phase was discarded. The remaining organic phase was dried down under vacuum and the resulting lipid extract was dissolved in methanol/acetonitrile (1:1). Quantity of parent LD-DEX/DTX compound was determined by ultra high pressure liquid chromatography on a Waters Acquity™ H-Class UPLC System™ equipped with a BEH C18 column and a photodiode array detector.

[5] = Prodrug incorporation (entrapment) in lipid nanoparticles, UHPLC; assay type: physicochemical; conditions: for % Entrapment PC-Chol LNP: LD-DEX prodrug in PC-Chol LNP; for % Entrapment [ionizable LNP]: LD-DEX prodrug in ionizable LNP
Experimental: as §1, §2

OVCAR3 cells = assay: In vitro growth inhibition by LD-DTX prodrugs, cell viability assay; assay type: cell-based; conditions: Homo sapiens, OVCAR-3, 48 h, Ovcar3 cells
Experimental: OVCAR3 cells were obtained from ATCC (Manassas, Va.). Cells were seeded at 12,000 cells per well on 96-well plates and treated with free docetaxel, prodrugs, lipid nanoparticle formulations with or without prodrugs at 0 to 15 μM of docetaxel for 48 h. Cell viability was determined by a colorimetric assay, based on the tetrazolium salt MIT (3-(4,5-dimethylthiazol-2-yl)-2,5-diphenyltetrazolium bromide), as described previously [Mossman 1983].

[6] = In vitro dissociation of lipid-linked prodrugs from LNP in human plasma; assay type: in vitro ADME; conditions: human plasma over 24 h, 37° C., PC-Chol LNP or ionizable LNP
Experimental: LNP were incubated for 0, 3, 5 and 24 h at 37° C. in 400 μL of sterile human plasma (Cedarlane™, Burlington, Ontario) at a final lipid concentration of 1.2 mM. At the various time-points, samples were loaded onto a 1.5×27 cm Sepharose CL-4B column (Sigma-Aldrich™, St. Louis, Mo.). 30×2 mL fractions were collected. Three volumes of methanol/acetonitrile (1:1) were added to each fraction and analyzed by UHPLC to determine the residual LD-DEX/DTX as described above.

[7] = tested on: purified porcine esterase; assay: In vitro degradation of lipid-linked prodrugs in LNP, purified esterase in PBS; conditions: LNP, 24 h incubation

| SMILES | plasma cytokine (TNFα, IL-6 and IL-10) levels versus control LNP-CpG [1] | Particle size (PDI) PC-Chol LNP [2] | Particle size (PDI) [ionizable LNP] [2] | IL1β expression versus control LNP without prodrug [3] | prodrug cleavage/degradation after 1 h in plasma [4] | % Entrapment PC-Chol LNP [5] | % Entrapment [ionizable LNP] [5] | IC50 (OVCAR3 cells; Free drugs) | IC50 (OVCAR3 cells; PC-Chol LNP) | IC50 (OVCAR3 cells; PC-TO LNP) | IC50 (OVCAR3 cells; ionizable LNP) | prodrug dissociation rate from LNP [6] | prodrug dissociation rate from LNP ([6]; listed as LD18) | release of active drug (UPLC chromatogram) in purified esterase [7] | release of active drug (UPLC chromatogram) in mouse plasma ([4]; 24 h incubation) |
| --- | --- | --- | --- | --- | --- | --- | --- | --- | --- | --- | --- | --- | --- | --- | --- |
| CCCCCCCC/C=C\CCCCCCCCOC(=O)CCC(=O)OCC(=O)[C@@]1(O)[C@H](C)C[C@H]2[C@@H]3CCC4=CC(=O)C=C[C@]4(C)[C@@]3(F)[C@@H](O)C[C@@]21C [LD13-DEX, oleyl 2-((8S,9R,10S,11S,13S,14S,16R,17R)-9-fluoro-11,17-dihydroxy-10,13,16-trimethyl-3-oxo-6,7,8,9,10,11,12,13,14,15,16,17-dodecahydro-3H-cyclopenta[a]phenanthren-17-yl)-2-oxoethyl succinate] | able to suppress plasma cytokine | 61 (0.03) nm | [49 (0.07)] nm | able to reduce IL1β expression | partially degraded | 100% | [96] % | – | – | – | – | – | – | – | – |
| CCCCCCCCCCCCCCCCOC(=O)CCC(=O)OCC(=O)[C@@]1(O)[C@H](C)C[C@H]2[C@@H]3CCC4=CC(=O)C=C[C@]4(C)[C@@]3(F)[C@@H](O)C[C@@]21C [LD14-DEX, palmityl 2-((8S,9R,10S,11S,13S,14S,16R,17R)-9-fluoro-11,17-dihydroxy-10,13,16-trimethyl-3-oxo-6,7,8,9,10,11,12,13,14,15,16,17-dodecahydro-3H-cyclopenta[a]phenanthren-17-yl)-2-oxoethyl succinate] | able to suppress plasma cytokine | 67 (0.05) nm | [47 (0.06)] nm | able to reduce IL1β expression | partially degraded | 100% | [95] % | – | – | – | – | – | – | – | – |
| CCCCCCCCCCCCCC(=O)OCC(COC(=O)CCC(=O)OCC(=O)[C@@]1(O)[C@H](C)C[C@H]2[C@@H]3CCC4=CC(=O)C=C[C@]4(C)[C@@]3(F)[C@@H](O)C[C@@]21C)OC(=O)CCCCCCCCCCCCC (stereo partly drawn) [LD17-DEX, 2,3-dimyristroylpropyl (2-((8S,9R,10S,11S,13S,14S,16R,17R)-9-fluoro-11,17-dihydroxy-10,13,16-trimethyl-3-oxo-6,7,8,9,10,11,12,13,14,15,16,17-dodecahydro-3H-cyclopenta[a]phenanthren-17-yl)-2-oxoethyl) succinate] | able to suppress plasma cytokine | – | [48 (0.06)] nm | able to reduce IL1β expression | not susceptible to degradation | – | [89] % | – | – | – | – | – | – | – | – |
| CCCCCCCC/C=C\CCCCCCCCOC(=O)CCC(=O)O[C@@H](C(=O)O[C@H]1C[C@@]2(O)[C@@H](OC(=O)c3ccccc3)[C@@H]3[C@]4(OC(C)=O)CO[C@@H]4C[C@H](O)[C@@]3(C)C(=O)[C@H](O)C(=C1C)C2(C)C)[C@@H](NC(=O)OC(C)(C)C)c1ccccc1 [LD18-DTX, (2R,3S)-1-(((2aR,4S,4aS,6R,9S,11S,12S,12aR,12bS)-12b-acetoxy-12-(benzoyloxy)-4,6,11-trihydroxy-4a,8,13,13-tetramethyl-5-oxo-2a,3,4,4a,5,6,9,10,11,12,12a,12b-dodecahydro-1H-7,11-methanocyclodeca[3,4]benzo[1,2-b]oxet-9-yl)oxy)-3-((tert-butoxycarbonyl)amino)-1-oxo-3-phenylpropan-2-yl(Z)-octadec-9-en-1-ylsuccinate] | – | – | – | – | largely not degraded | – | – | 23.9 nM | 37.3 nM | 131 nM | 64 nM | dissociated at a faster rate from lipid nanoparticles than LD22-DTX | dissociates from LNP faster than LD22 | active docetaxel (DTX) was observed | active docetaxel (DTX) was observed |
